Source: patent publication US20140323577A1, “METHODS FOR REDUCING THE RISK OF CONVERSION TO CLINICALLY DEFINITE MULTIPLE SCLEROSIS” (Sanofi-Aventis U.S. LLC, priority 2013, published 2014)

What was measured:
Assay type in all cases: in vivo, human
[1] = tested on: patients with a first clinical episode suggestive of multiple sclerosis; test: Time to conversion to CDMS, randomized double-blind placebo-controlled study; conditions: for Hazard ratio (95% CI), time to conversion to CDMS: Cox proportional hazard model; for Number of patients who were censored (time to conversion to CDMS) / Number of patients with conversion to CDMS: number (%); for Kaplan-Meier estimates of probability of conversion to CDMS (95% CI): ITT
Excerpt: (§1) Methodology: This was a multi-center, multinational, randomized, placebo-controlled, double blind, parallel group (3 groups) study stratified by center and baseline monofocal/multifocal status.
(§2) Diagnosis and criteria for inclusion: Patients with a first acute or subacute, well-defined neurological event consistent with demyelination with onset of MS symptoms occurring within 90 days of randomization; and abnormal MRI with 2 or more T2 lesions at least 3 mm in diameter that are characteristic of MS.
Efficacy/pharmacodynamics: The primary efficacy variable was time to CDMS defined by the occurrence of a relapse: new neurological abnormality separated by at least 30 days from onset of a preceding clinical event, present for at least 24 hours and occurring in the absence of fever or known infection.
(§3) Statistical methods: Analysis population: Efficacy analyses were based on the intent-to-treat (ITT) population consisting of all randomized patients, as randomized, who had at least 1 day exposure to study medication.
Efficacy analysis: The primary analysis of time to conversion to CDMS was performed using Cox regression model with treatment, region, and baseline monofocal/multifocal status as independent variables. The assessment of efficacy was based on (pairwise) hazard rate ratio comparisons of each active dose of teriflunomide versus placebo. Two-sided 95% confidence intervals of the hazard rates ratio were provided for each teriflunomide treatment effect estimate versus placebo. The log-rank test was provided as supportive.
(§4) Multiplicity procedure: Step down approach was used for multiplicity adjustment for 2 doses of teriflunomide and the primary and key secondary endpoints. Treatment comparison of teriflunomide 14 mg vs. placebo in time to conversion to CDMS was tested at 5% significance level. If significant, comparison of teriflunomide 7 mg vs. placebo in time to conversion to CDMS was tested at 5% significance level. If significant, comparison of teriflunomide 14 mg vs. placebo for the key secondary endpoint was tested at 5% significance level. If significant, comparison of teriflunomide 7 mg vs. placebo for the key secondary endpoint was tested at 5% significance level.

[2] = tested on: patients with a first clinical episode suggestive of multiple sclerosis; test: Time to conversion to DMS (dissemination of MRI lesions in time or a relapse), same study; conditions: for Hazard ratio (95% CI), time to conversion to DMS: Cox proportional hazard model; for Number of patients with conversion to DMS / Number of patients who were censored (time to conversion to DMS) / Number of patients with conversion to DMS: Dissemination of MRI lesion in time / Number of patients with conversion to DMS: Relapse: number (%); for Number of patients who were censored (time to conversion to DMS) / Number of patients with conversion to DMS: Dissemination of MRI lesion in time / Number of patients with conversion to DMS: Relapse / Kaplan-Meier estimates of probability of conversion to DMS (95% CI): ITT
Excerpt: as §1, §2, §3
(§5) The key secondary endpoint was analyzed using the same Cox regression model. ARR was analyzed using a Poisson regression model with robust error variance including the number of confirmed relapses with their onset between randomization date and last dose date as the response variable, treatment, region, and baseline monofocal/multifocal status as covariates, and log transformed standardized exposure duration as an offset variable.
as §4

[3] = tested on: patients with a first clinical episode suggestive of multiple sclerosis; test: Confirmed MS relapse / annualized relapse rate (ARR), same study; conditions: for Unadjusted annualized relapses rate / Total number of relapses / Number of patients with ≧1 relapses: No / Number of relapses: 0 (patients) / Number of relapses: 1 (patients) / Number of relapses: 2 (patients) / Number of relapses: >=3 (patients): ITT; for Number of patients with ≧1 relapses: Yes / Number of patients with ≧1 relapses: No / Number of relapses: 0 (patients) / Number of relapses: 1 (patients) / Number of relapses: 2 (patients) / Number of relapses: >=3 (patients): number (%); for Risk reduction of on-treatment adjusted ARR relative to placebo: non-statistically significant
Excerpt: as §1, §2, §3, §5

[4] = tested on: patients with a first clinical episode suggestive of multiple sclerosis; test: Study treatment discontinuation and tolerability, same study
Description: as §1
454 (73.9%) patients completed 108 weeks of study treatment or entered the extension: 71.6% in the placebo group, 73.2% in the teriflunomide 7 mg group, and 75.5% in the teriflunomide 14 mg group. […] The mean (±SD) age was 32.1 (±8.5) years and the study population was primarily Caucasian (96.1%).

[5] = 14 mg once daily, ITT (N = 214)
[6] = 7 mg once daily, randomized population (N = 205)
[7] = 14 mg once daily, randomized population (N = 216)

Structure (SMILES): C/C(O)=C(\C#N)C(=O)Nc1ccc(C(F)(F)F)cc1 [teriflunomide, (Z)-2-cyano-3-hydroxy-but-2-enoic acid-(4′-trifluoromethylphenyl)-amide]
- Hazard ratio (95% CI), time to conversion to CDMS ([1]; 7 mg once daily vs placebo, P-value 0.0271, log-rank P 0.0422): 0.628
- Number of patients who were censored (time to conversion to CDMS) ([1]; 7 mg once daily, ITT (N = 203)): 164 (80.8%)
- Number of patients with conversion to CDMS ([1]; 7 mg once daily, ITT population (N = 203)): 39 (19.2%)
- Kaplan-Meier estimates of probability of conversion to CDMS (95% CI) ([1]; 7 mg once daily, at 24 weeks): 0.087
- Kaplan-Meier estimates of probability of conversion to CDMS (95% CI) ([1]; 7 mg once daily, at 48 weeks): 0.142
- Estimated cumulative rate of conversion to CDMS ([1]; 7 mg once daily, at 108 weeks): 27.6%
- Kaplan-Meier estimates of probability of conversion to CDMS (95% CI) ([1]; 7 mg once daily, at 108 weeks): 0.276
- Reduction of the risk of conversion to CDMS compared to placebo ([1]; 7 mg once daily, p=0.0271): 37.2%
- Hazard ratio (95% CI), time to conversion to CDMS ([1]; 14 mg once daily vs placebo, P-value 0.0087, log-rank P 0.0133): 0.574
- Number of patients who were censored (time to conversion to CDMS) [1, 5]: 176 (82.2%)
- Number of patients with conversion to CDMS ([1]; 14 mg once daily, ITT population (N = 214)): 38 (17.8%)
- Kaplan-Meier estimates of probability of conversion to CDMS (95% CI) ([1]; 14 mg once daily, at 24 weeks): 0.090
- Kaplan-Meier estimates of probability of conversion to CDMS (95% CI) ([1]; 14 mg once daily, at 48 weeks): 0.137
- Estimated cumulative rate of conversion to CDMS ([1]; 14 mg once daily, at 108 weeks): 24.0%
- Kaplan-Meier estimates of probability of conversion to CDMS (95% CI) ([1]; 14 mg once daily, at 108 weeks): 0.240
- Reduction of the risk of conversion to CDMS compared to placebo ([1]; 14 mg once daily, p=0.0087): 42.6%
- Hazard ratio (95% CI), time to conversion to DMS ([2]; 7 mg once daily vs placebo, P-value 0.0020, log-rank P 0.0028): 0.686
- Number of patients with conversion to DMS ([2]; 7 mg once daily, ITT (N = 203)): 125 (61.6%)
- Number of patients who were censored (time to conversion to DMS) ([2]; 7 mg once daily): 78 (38.4%)
- Number of patients with conversion to DMS: Dissemination of MRI lesion in time ([2]; 7 mg once daily): 110 (54.2%)
- Number of patients with conversion to DMS: Relapse ([2]; 7 mg once daily): 15 (7.4%)
- Kaplan-Meier estimates of probability of conversion to DMS (95% CI) ([2]; 7 mg once daily, at 24 weeks): 0.457
- Kaplan-Meier estimates of probability of conversion to DMS (95% CI) ([2]; 7 mg once daily, at 48 weeks): 0.573
- Estimated cumulative rate of conversion to DMS (dissemination of MRI lesions in time or confirmed relapse) ([2]; 7 mg once daily, at 108 weeks): 73.3%
- Kaplan-Meier estimates of probability of conversion to DMS (95% CI) ([2]; 7 mg once daily, at 108 weeks): 0.733
- Reduction of the risk of conversion to DMS (dissemination of MRI lesions in time or a relapse) compared to placebo ([2]; 7 mg once daily, p=0.0020): 31.4%
- Hazard ratio (95% CI), time to conversion to DMS ([2]; 14 mg once daily vs placebo, P-value 0.0003, log-rank P 0.0002): 0.651
- Number of patients with conversion to DMS [2, 5]: 136 (63.6%)
- Number of patients who were censored (time to conversion to DMS) ([2]; 14 mg once daily): 78 (36.4%)
- Number of patients with conversion to DMS: Dissemination of MRI lesion in time ([2]; 14 mg once daily): 111 (51.9%)
- Number of patients with conversion to DMS: Relapse ([2]; 14 mg once daily): 25 (11.7%)
- Kaplan-Meier estimates of probability of conversion to DMS (95% CI) ([2]; 14 mg once daily, at 24 weeks): 0.460
- Kaplan-Meier estimates of probability of conversion to DMS (95% CI) ([2]; 14 mg once daily, at 48 weeks): 0.578
- Estimated cumulative rate of conversion to DMS (dissemination of MRI lesions in time or confirmed relapse) ([2]; 14 mg once daily, at 108 weeks): 71.5%
- Kaplan-Meier estimates of probability of conversion to DMS (95% CI) ([2]; 14 mg once daily, at 108 weeks): 0.715
- Reduction of the risk of conversion to DMS (dissemination of MRI lesions in time or a relapse) compared to placebo ([2]; 14 mg once daily, p=0.0003): 34.9%
- Adjusted annualized relapse rate, Relative risk (95% CI) ([3]; 7 mg once daily vs placebo, P-value 0.0541): 0.669
- Adjusted annualized relapse rate, Risk difference (95% CI) ([3]; 7 mg once daily vs placebo, P-value 0.0576): −0.094
- Unadjusted annualized relapses rate ([3]; 7 mg once daily): 0.209
- Number of patients with ≧1 relapses: Yes ([3]; 7 mg once daily, ITT (N = 203)): 42 (20.7%)
- Total number of relapses ([3]; 7 mg once daily, 258.5 patient-years followed): 54
- Number of patients with ≧1 relapses: No ([3]; 7 mg once daily): 161 (79.3%)
- Number of relapses: 0 (patients) ([3]; 7 mg once daily): 161 (79.3%)
- Number of relapses: 1 (patients) ([3]; 7 mg once daily): 33 (16.3%)
- Number of relapses: 2 (patients) ([3]; 7 mg once daily): 7 (3.4%)
- Number of relapses: >=3 (patients) ([3]; 7 mg once daily): 2 (1.0%)
- Risk reduction of on-treatment adjusted ARR relative to placebo ([3]; 7 mg once daily, p=0.0541): 33.1%
- Adjusted annualized relapse rate, Relative risk (95% CI) ([3]; 14 mg once daily vs placebo, P-value 0.0579): 0.681
- Adjusted annualized relapse rate, Risk difference (95% CI) ([3]; 14 mg once daily vs placebo, P-value 0.0628): −0.091
- Unadjusted annualized relapses rate ([3]; 14 mg once daily): 0.208
- Number of patients with ≧1 relapses: Yes [3, 5]: 45 (21.0%)
- Total number of relapses ([3]; 14 mg once daily, 288.9 patient-years followed): 60
- Number of patients with ≧1 relapses: No ([3]; 14 mg once daily): 169 (79.0%)
- Number of relapses: 0 (patients) ([3]; 14 mg once daily): 169 (79.0%)
- Number of relapses: 1 (patients) ([3]; 14 mg once daily): 33 (15.4%)
- Number of relapses: 2 (patients) ([3]; 14 mg once daily): 10 (4.7%)
- Number of relapses: >=3 (patients) ([3]; 14 mg once daily): 2 (0.9%)
- Risk reduction of on-treatment adjusted ARR relative to placebo ([3]; 14 mg once daily, p=0.0579): 31.9%
- Study treatment discontinuation: Adverse event (number of patients) [4, 6]: 25
- Study treatment discontinuation: Death (number of patients) [4, 6]: 0
- Study treatment discontinuation: Lack of efficacy [4, 6]: (2.9%)
- Study treatment discontinuation: Lack of efficacy (number of patients) [4, 6]: 6
- Study treatment discontinuation: Progressive Disease [4, 6]: (0.5%)
- Study treatment discontinuation: Progressive Disease (number of patients) [4, 6]: 1
- Study treatment discontinuation: Adverse event (number of patients) [4, 7]: 18
- Study treatment discontinuation: Death (number of patients) [4, 7]: 0
- Study treatment discontinuation: Lack of efficacy [4, 7]: (5.6%)
- Study treatment discontinuation: Lack of efficacy (number of patients) [4, 7]: 12
- Study treatment discontinuation: Progressive Disease (number of patients) [4, 7]: 0
- Tolerability / safety profile ([4]; both doses (7 mg and 14 mg once daily)): well tolerated with a manageable safety profile
